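Dose response: 5 concentrations. Exposure: 48 h. Format: 96-well plates. Endpoint: linear interpolation; highest concentration if not reached. Abbreviation: GI50, concentration required for 50% inhibition of growth.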 Activity calls are given as the source filed them. No stated cut-off is given here; in the data, active = GI50 up to about 1.1 µM and inactive = higher.
Key:
Assay in all cases: DTP human tumour cell line panel, 48 h
RXF 631 = test system: RXF 631
KM-20L2 = test system: KM-20L2
XF498 = test system: XF498
DMS-273 = test system: DMS-273
HOP-18 = test system: HOP-18
DMS-114 = test system: DMS-114
LXFL 529 = test system: LXFL 529
DLD-1 = test system: DLD-1
SNB-78 = test system: SNB-78

Measured: GI50

COC(=O)/C(=N\NC(N)=O)C(C(=O)C(=O)Nc1ccccc1C(=O)OC)c1nc2ccc(C(=O)c3ccccc3)cc2nc1O (stereo not drawn)
inactive: RXF 631 > 100 µM | KM-20L2 > 100 µM | XF498 > 100 µM | DMS-273 > 100 µM | HOP-18 > 100 µM | DMS-114 > 100 µM | LXFL 529 > 100 µM | DLD-1 > 100 µM | SNB-78 > 100 µM

COc1ccc(/C(=N\NC(=O)C(=O)NN)C(c2ccc(OC)cc2)C2(O)C(=O)Nc3ccccc32)cc1 (stereo not drawn)
inactive: RXF 631 > 100 µM | KM-20L2 > 100 µM | XF498 29.6 µM | DMS-273 > 100 µM | DMS-114 64.3 µM | LXFL 529 29 µM | DLD-1 51.4 µM | SNB-78 > 100 µM

O=C1C2C3CC4C5C3C1C5C1(SCCS1)C42 (stereo not drawn)
inactive: KM-20L2 > 100 µM | DMS-273 > 100 µM | HOP-18 > 100 µM | DMS-114 > 100 µM | LXFL 529 > 100 µM | DLD-1 > 100 µM | SNB-78 > 100 µM

Cc1ccccc1C(=O)Oc1ccc(O)cc1
inactive: RXF 631 > 100 µM | KM-20L2 > 100 µM | DMS-273 > 100 µM | HOP-18 > 100 µM | DLD-1 > 100 µM | SNB-78 > 100 µM

N#CCCN(c1ccc(C=O)cc1)S(=O)(=O)c1ccccc1
inactive: KM-20L2 > 100 µM | XF498 > 100 µM | DMS-273 > 100 µM | DMS-114 > 100 µM | LXFL 529 > 100 µM

Cn1c(=O)nc2n(-c3ccc(Cl)cc3)c3ccc(Cl)cc3nc-2c1=O
inactive: KM-20L2 4.88 µM | SNB-78 14.8 µM

CCN(CC)CCn1c2c3ccccc3ccc2c2oc(=O)c3ccccc3c21
inactive: RXF 631 > 100 µM | KM-20L2 > 100 µM | XF498 > 100 µM | HOP-18 > 100 µM | DMS-114 > 100 µM | LXFL 529 > 100 µM | DLD-1 > 100 µM | SNB-78 > 100 µM

Cc1cc(O)nc(CNC(=O)Cc2ccccc2)n1
inactive: KM-20L2 > 100 µM | XF498 > 100 µM | DMS-273 > 100 µM | DMS-114 > 100 µM | LXFL 529 > 100 µM | DLD-1 > 100 µM | SNB-78 > 100 µM

CC1=COC(=O)c2ccccc2N1
inactive: KM-20L2 > 100 µM | DMS-273 > 100 µM | DMS-114 > 100 µM | LXFL 529 > 100 µM | DLD-1 > 100 µM | SNB-78 > 100 µM

CCN(CC)CCNC(=O)c1ccccc1NC(=O)C(=O)Nc1ccccc1C(=O)NCCN(CC)CC
inactive: RXF 631 > 100 µM | KM-20L2 37.7 µM | DMS-273 > 100 µM | HOP-18 > 100 µM | DMS-114 32.2 µM | DLD-1 63.4 µM | SNB-78 > 100 µM

COc1cc2ccc3c4cc(OC)c(OC)cc4c[n+](C)c3c2cc1O
inactive: KM-20L2 > 100 µM | XF498 24.7 µM | DMS-273 55.5 µM | HOP-18 > 100 µM | DMS-114 8.99 µM | LXFL 529 12.6 µM | DLD-1 > 100 µM | SNB-78 > 100 µM

CCOC(=O)C(C(=O)c1ccccc1)=C1NCCN1
inactive: RXF 631 > 100 µM | KM-20L2 > 100 µM | XF498 > 100 µM | HOP-18 4.06 µM | LXFL 529 > 100 µM | DLD-1 > 100 µM

COS(=O)(=O)OCCC(NC(=O)OCc1ccccc1)C(=O)OCc1ccccc1 (stereo not drawn)
inactive: KM-20L2 > 100 µM | DMS-273 > 100 µM | HOP-18 > 100 µM | DMS-114 > 100 µM | LXFL 529 > 100 µM | DLD-1 > 100 µM | SNB-78 > 100 µM

O=C(N/N=C/c1cccc(O)c1O)N/N=C/c1cccc(O)c1O
inactive: KM-20L2 29.3 µM | XF498 19.1 µM | DMS-273 22.9 µM | HOP-18 19.2 µM | DMS-114 > 100 µM | LXFL 529 16.7 µM | SNB-78 34.8 µM

O=c1cc(-c2ccccc2)c2cc3c(=O)ccoc3cc2o1
inactive: KM-20L2 > 100 µM | XF498 > 100 µM | DMS-273 > 100 µM | DMS-114 83 µM | DLD-1 77.4 µM

CCCCNC(=O)NNC(=O)c1cc(/C=C/c2cccc([N+](=O)[O-])c2)ncn1
inactive: RXF 631 > 100 µM | KM-20L2 > 100 µM | XF498 > 100 µM | DMS-273 > 100 µM | HOP-18 > 100 µM | DMS-114 51.3 µM | LXFL 529 > 10 µM | DLD-1 37.7 µM | SNB-78 > 100 µM

CCCCN(CC)C(=O)C(=O)C1C(=O)Nc2ccccc2[S+]1[O-] (stereo not drawn)
inactive: KM-20L2 > 100 µM | DMS-273 > 100 µM | HOP-18 > 100 µM | DMS-114 > 100 µM | LXFL 529 > 100 µM | DLD-1 > 100 µM | SNB-78 > 100 µM

CN(C)CC/C(=N\Nc1ccccc1)c1ccccc1
inactive: XF498 3.89 µM | HOP-18 31 µM | DMS-114 15.6 µM | DLD-1 69.2 µM | SNB-78 11.8 µM

CCN1N=CSC12C(=O)N(c1ccccc1)C(=O)N2c1ccccc1 (stereo not drawn)
inactive: RXF 631 > 100 µM | KM-20L2 > 100 µM | XF498 32.7 µM | HOP-18 > 100 µM | DMS-114 57.8 µM | LXFL 529 > 100 µM | DLD-1 > 100 µM | SNB-78 > 100 µM

CC(C)(C)C1CCC(=O)C(C(O)CC2CC(=O)N(c3ccccc3)C(=O)C2)C1 (stereo not drawn)
inactive: RXF 631 56.8 µM | KM-20L2 > 100 µM | XF498 > 100 µM | DMS-273 > 100 µM | HOP-18 > 100 µM | DMS-114 > 100 µM | LXFL 529 > 100 µM | DLD-1 > 100 µM | SNB-78 > 100 µM

COc1ccc(S(=O)(=O)N(CC(=O)O)c2ccccc2)cc1
inactive: KM-20L2 > 100 µM | DMS-273 > 100 µM | HOP-18 > 100 µM | LXFL 529 > 100 µM | DLD-1 > 100 µM

COc1ccc(C2Cc3cc(OC)c(OC)c(OC)c3C2=O)cc1 (stereo not drawn)
inactive: KM-20L2 > 100 µM | XF498 2 µM | DMS-273 > 100 µM | HOP-18 > 100 µM | DMS-114 76.6 µM | DLD-1 > 100 µM | SNB-78 > 100 µM
